Experimental data reported in US8466311B2, “Neuroprotective compositions and methods” (Sanford-Burnham Medical Research Institute, priority 2006, dated 2013).

Key:
[1] = system: mixed neuronal/glial cortical cultures; assay: Site of accumulation of biotin-labeled compound in mixed neuronal/glial cortical cultures; assay type: cell-based, rat; details: E17 DIV21
Description: Activation of the Keap1/Nrf2 pathway in Primary Cortical Cultures. To begin to test the effects of NEPP compounds on primary cerebrocortical neurons, we treated mixed neuronal/glial cortical cultures with NEPP6-biotin and then fixed and stained with rhodamine conjugated to streptavidin to determine the site of NEPP accumulation. Cortical cultures treated with NEPP6-biotin (10 μM) were stained with anti-MAP-2 monoclonal and rhodamine-conjugated streptavidin antibodies and with Hoechst 33,258 dye.
Immunocytochemistry. Cultures were fixed with 3% paraformaldehyde at room temperature for 20 min. After three washes in PBS, the cells were permeabilized with 0.3% Triton X-100 for 5 min. After three additional washes in PBS, the cells were incubated at 4° C. overnight with primary antibodies. They were then washed three times in PBS containing 0.2% Tween 20 (PBS-T), and next incubated with secondary antibodies for 1 h at room temperature. Thereafter, the cells were again washed, and their nuclei stained with Hoechst 33,258 (5 μg/ml) or with DAPI (1 μg/ml) for 5 min. Stained preparations were mounted and examined by epifluorescence microscopy. The following primary antibodies were used: anti-Nrf2 antibody, anti-MAP2 and anti-NeuN antibodies to identify neurons (dendrites and nuclei, respectively), and anti-S100β antibody to identify astrocytes. […]

[2] = target: T1, bovine serum albumin (BSA) (Bos taurus, UniProt P02769); assay: Adduct formation with free cysteine of BSA (streptavidin blot); assay type: binding; details: PBS, room temperature, 5 h, streptavidin probe
T1 construct: purchased WAKO Chemicals Inc. (Tokyo, Japan) or Sigma (St. Louis, Mo.)
Description: We tested whether the free cysteine of bovine serum albumin (BSA) could form an adduct with NEPP compounds. If carbon #11 on the NEPP compounds binds to this free cysteine of BSA, then pretreatment with N-ethylmaleimide (NEM), in irreversible thiol alkylating agent, would abolish this binding. […] With streptavidin as a probe, we could then detect proteins bound to NEPP6-biotin. In order to study thiols as targets of NEPP binding, BSA (1 μg per lane) was incubated with various concentrations (0-1000 μM) of N-ethylmaleimide (NEM) for 30 minutes at room temperature. Vehicle or NEPP6-biotin (10 μM) in phosphate-buffered saline (PBS) was added and the mixture was incubated at room temperature for 5 h, subjected to sodium dodecyl sulfate polyacrylamide gel electrophoresis (SDS-PAGE), and probed with peroxidase-conjugated streptavidin. The gel was also stained with Coomassie brilliant blue.

[3] = system: PC12h cells; assay: Oxidative glutamate toxicity in PC12h cells (MTT assay); assay type: cell-based
Description: PC12h cells, PC12hW1B cells, and PC12hD5D cells (expressing Nrf2DN) were incubated with various concentrations of glutamate for 20 h. […] Various concentrations of CA were added to PC12, PC or PC12hD5D cells 1 h prior to exposure to 5 mM glutamate for 20 h.
PC12h and COST cell cultures.
Thus, we examined whether CA could protect PC12h cells from such insults. We prepared naïve PC12h cells, Nrf2WT-expressing PC12h cells (PC12hW1B), and Nrf2DN-expressing PC12h cells (PC12hD5D). In order to examine the effects of the Keap1/Nrf2 pathway on cell survival in the face of oxidative stress, we exposed the cells to a high concentration of glutamate. […] To visualize surviving and dead cells, we stained cultures with fluorescein diacetate (FDA) and propidium iodide (PI), respectively. Additionally, cell survival was quantified by the 3-(4,5-dimethylthiazol-2-yl)-2,5-diphenyl tetrazolium bromide (MTT) assay (FIG. 4A).
We next tested the hypothesis that CA-induced neuroprotection is mediated by the Keap1/NRf2 pathway.

[4] = target: T2, Keap1 (Mus musculus, UniProt Q9Z2X8); assay: Binding of CAB/CA to Keap1 and Keap1 deletion mutants (streptavidin precipitation); details: COS7 cells, HA-WT Keap1, 10 μM CAB
T2 construct: expressed in transfected cells; host or cells: COS7 cells
Description: (§1) (3) Expression vectors for HA-tagged Keap1 and Keap1 deletion mutants. These constructs were obtained from Dr. Akira Kobayashi of Tohoku University (Hosoya et al., J. Biol. Chem. 29:27244-27250, 2006; Kobayashi et al., Mol. Cell. Biol. 26:221-229, 2006).
(§2) Immunoprecipitation with agarose-immobilized streptavidin or antibody. PC12h cells (CAB- or vehicle-treated) were lysed in RIPA buffer supplemented with protease inhibitor cocktail. The lysates were centrifuged at 15,000 rpm for 10 min at 4° C., after which the supernatants were incubated with agarose-immobilized streptavidin at 4° C. for 1 h. Alternatively, for immunoprecipitation with anti-Keap1, the cell lysates were incubated with the antibody at 4° C. overnight, after which protein A immobilized on Sepharose CL-4B was added and incubation continued at 4° C. for 1 h. Then, the complexes were washed three times with rinse buffer (150 mM NaCl, 50 mM Tris-HCl [pH 7.5], 0.1% NP-40, 1 mM EDTA, and 0.02% NaN3). SDS sample buffer was added, the mixture was boiled for 5 min, and the supernatants were subjected to SDS-PAGE. Immunoblotting was then performed as described above.
(§3) CA activates the Keap1/Nrf2/ARE pathway. […] The initial reaction in this activation cascade is the binding of an electrophilic compound to specific cysteines on Keap1 protein (Hong et al., Chem. Res. Toxicol. 18: 1917-1926, 2005; Eggler et al., Proc. Nat. Acad. Sci. USA 102:10070-10075, 2005; Zhang et al., Mol. Cell. Biol. 10941-10953, 2004). Such binding initiates a cellular transcription pathway leading to induction of phase 2 enzymes (Talalay, Biofactors 12:5-11, 2000; Padmanabham et al., Mol. Cell 21:689-700, 2006; Itoh et al., Free Radic. Biol. Med. 36:1208-1213, 2004). Therefore, we examined the domains of Keap1 (designated BTB, IVR, and DGR) to determine those essential for binding to CA. Accordingly, for co-immunoprecipitation experiments, we transfected COS7 cells with DNA expressing either HA-tagged wild type Keap1 protein (HA-WT Keap1) or various deletion mutants of tagged Keap1 protein (HA-ΔBTB Keap1, HA-ΔIVR Keap1, and HA-ΔDGR Keap1). The transfected COS7 cells were then treated with vehicle or 10 μM CAB and lysed. We quantified the expression level of Keap1 protein in total cell lysates with anti-HA antibody. Each Keap1 mutant protein was expressed at a similar level of the predicted molecular weight (57 kDa for HA-ΔBTB Keap1, 53 kDa for HA-ΔIVR Keap1, and 37 kDa for HA-ΔDGR Keap1). Next, in order to detect Keap1/CAB complexes, we immunoprecipitated cell lysates with streptavidin and probed with anti-HA antibody. […] The requirement of the BTB domain for CA binding is in accord with prior results (Hong et al., Chem. Res. Toxicol. 18:1917-1926, 2005; Eggler et al., Proc. Nat. Acad. Sci. USA 102:10070-10075, 2005; Zhang et al., Mol. Cell. Biol. 24:10941-10953, 2004).
(§4) After binding of the electrophilic quinone-form of CA to Keap1 protein, activation of the Keap1/Nrf2 pathway requires nuclear translocation of Nrf2 (Talalay, Biofactors 12:5-11, 2000; Padmanabham et al., Mol. Cell 21:689-700, 2006; Itoh et al., Free Radic. Biol. Med. 36:1208-1213, 2004). Thus, we next examined the intracellular distribution of Nrf2 protein in COS7 cells by immunofluorescence.

[5] = system: Keap1; assay: as above; details: COS7 cells, 10 μM CAB
Description: as §1, §2, §3, §4

[6] = system: ARE; assay: ARE(GSTYa)-luciferase reporter in PC12h cells; assay type: cell-based
Description: (1) pGL3-GSTYa ARE core-luciferase vector. […] The dsDNA thus obtained was inserted into the Mlu l and Bglll sites of the pGL3-promoter vector (Promega Co., Madison, Wis.).
Transient transfection and measurement of luciferase activity. PC12h cells or cerebrocortical cultures (E17, DIV21) were incubated for 5 h in EBSS containing 1 μg of a plasmid DNA plus Lipofectamine 2000 (Invitrogen, Carlsbad, Calif.). Transfection efficiency was normalized to β-galactosidase activity expressed by co-transfection with pSV-β-gal (Promega). For reporter gene assays, cells were transfected with 1 μg of the reporter construct [ARE(GSTYa)-luciferase] and 0.2 μg pSV-β-gal for 1 hour. […] Firefly luciferase activity and β-galactosidase activity in cell lysates were measured using a Luciferase System and β-Galactosidase Enzyme Assay System, respectively (Promega, Madison, Wis.).
Next, we examined the involvement of the Keap1/Nrf2 pathway more precisely by studying activation of the ARE. This transcription element responds to the Keap1/Nrf2 pathway; we monitored activation of the ARE by performing luciferase reporter gene assays using PC12h cells transfected with ARE(GSTYa)-luciferase (Alam et al., J. Biol. Chem. 274:26071-26077, 1999) in the presence or absence of an Nrf2 dominant-negative (DN) or Keap1 expression vector.

[7] = system: GSH; assay: Total GSH levels in cortical cultures; assay type: cell-based; details: NEM
Description: Cell cultures, transfection, and glutathione (GSH) measurement. […] Transfection was performed with Lipofectamine 2000 (Invitrogen). In the reporter gene assays, firefly luciferase activity in cell lysates was measured with a luminometer (Promega). Total GSH (reduced and oxidized) was determined as described (Lee et al., Biochem. Biophys. Res. Commun. 280:286-292, 2001).
One caveat to the mechanism of NEPP and other electrophilic compounds acting at the level of Keap1 to induce HO-1 transcription is that NEPP could potentially react indiscriminately with other thiol-containing compounds in cells. To approach this question, we assessed cellular glutathione (GSH) levels to determine whether NEPP11 would affect this abundant antioxidant thiol. Nepp11 or N-ethylmaleimide (NEM) was added at t=0 and levels of total GSH were measured at the indicated times. GSH content of control cortical cultures (set arbitrarily at 100%) was 46.8±4.5 nmol/mg protein. […] In fact, this scenario seems likely, because the Keap1/Nrf2 pathway regulates the expression of γ-GCL in addition to HO-1 (Itoh et al., Mol. Cell. Biol. 24:36-45, 2004). […]
Transfections were performed with Lipofectamine 2000 (Invitrogen), and firefly luciferase activity in cell lysates was measured with a luminometer in the reporter gene assays (Promega).

[8] = system: cerebrocortical neurons; assay: NMDA-induced neuronal cell death (excitotoxicity) in cerebrocortical cultures; details: ZnPP 10 μM added simultaneously with NEPP11
Description: We stained the cultures with both anti-MAP-2 and anti-NeuN monoclonal antibodies to label neuronal dendrites and nuclei, respectively. Vehicle or NEPP11 (0.7 μM) was added to cerebrocortical cultures (E17 and DIV14-21) 60 min before treatment with NMDA (50 μM) for 15 min. The cultures were then incubated for 20 h and subsequently stained with anti-MAP-2 and anti-NeuN and with Hoechst dye. Apoptotic nuclei were identified by morphological changes seen with Hoechst staining. […] We also added zinc protoporphyrin (ZnPP, 10 μM), a relatively specific HO-1 antagonist, simultaneously with NEPP11. The number of apoptotic neurons was assessed by determining the apoptotic index [(number of condensed nuclei in MAP-2 or NeuN-positive cells)/(number of total MAP-2 or NeuN-positive cells)×100%], as reported by Bonfoco et al. (Proc. Natl. Acad. Sci. USA 92:7162-7166, 1995).
Cerebrocortical cultures were prepared from embryonic day-17 Sprague-Dawley rats and used at day 14-21 in vitro (DIV14-21), as described (Bonfoco et al., Proc. Natl. Acad. Sci. USA 92:7162-7166, 1995). To induce predominantly neuronal apoptosis (rather than necrosis), we exposed cortical cultures to 50 mM NMDA plus 5 mM glycine/1.8 mM CaCl2 in nominally Mg^2+-free Earle's balanced salt solution for 15 min (Bonfoco et al., Proc. Natl. Acad. Sci. USA 92:7162-7166, 1995). After exposure to NMDA, the cultures were returned to normal medium containing vehicle or NEPP11 and incubated for 20 hr before analyzing cell survival. To assess the ability of NEPP compounds to block NMDA-induced neuronal apoptosis, we identified apoptotic neurons by double immunofluorescence with anti-NeuN and anti-MAP-2 to specifically label neurons and with Hoechst staining for nuclear morphology to detect apoptosis. The percentage of neurons and non-neuronal cells in our cultures was 33.6±4.9% and 66.4±4.4% (n=4), respectively.
In addition, we used mature cortical cultures (E17, DIV21) to assess excitotoxicity because functional NMDA receptors are expressed on these neurons.

T1 sequence (P02769 25-607): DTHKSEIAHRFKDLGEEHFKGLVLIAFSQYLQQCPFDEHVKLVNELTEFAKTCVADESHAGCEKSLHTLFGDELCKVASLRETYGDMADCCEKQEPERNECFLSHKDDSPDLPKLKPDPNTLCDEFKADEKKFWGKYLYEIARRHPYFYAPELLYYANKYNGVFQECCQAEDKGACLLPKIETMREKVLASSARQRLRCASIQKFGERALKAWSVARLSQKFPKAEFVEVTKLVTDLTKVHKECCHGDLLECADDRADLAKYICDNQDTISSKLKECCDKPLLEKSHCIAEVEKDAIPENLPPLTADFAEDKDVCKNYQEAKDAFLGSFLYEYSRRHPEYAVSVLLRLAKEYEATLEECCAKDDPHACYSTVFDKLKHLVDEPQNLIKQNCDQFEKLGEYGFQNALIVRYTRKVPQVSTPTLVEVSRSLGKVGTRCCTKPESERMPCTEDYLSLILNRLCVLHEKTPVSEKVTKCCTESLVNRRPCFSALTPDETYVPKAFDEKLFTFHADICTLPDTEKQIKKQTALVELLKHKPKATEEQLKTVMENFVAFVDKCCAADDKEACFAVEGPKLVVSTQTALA
T2 sequence (Q9Z2X8 whole entry): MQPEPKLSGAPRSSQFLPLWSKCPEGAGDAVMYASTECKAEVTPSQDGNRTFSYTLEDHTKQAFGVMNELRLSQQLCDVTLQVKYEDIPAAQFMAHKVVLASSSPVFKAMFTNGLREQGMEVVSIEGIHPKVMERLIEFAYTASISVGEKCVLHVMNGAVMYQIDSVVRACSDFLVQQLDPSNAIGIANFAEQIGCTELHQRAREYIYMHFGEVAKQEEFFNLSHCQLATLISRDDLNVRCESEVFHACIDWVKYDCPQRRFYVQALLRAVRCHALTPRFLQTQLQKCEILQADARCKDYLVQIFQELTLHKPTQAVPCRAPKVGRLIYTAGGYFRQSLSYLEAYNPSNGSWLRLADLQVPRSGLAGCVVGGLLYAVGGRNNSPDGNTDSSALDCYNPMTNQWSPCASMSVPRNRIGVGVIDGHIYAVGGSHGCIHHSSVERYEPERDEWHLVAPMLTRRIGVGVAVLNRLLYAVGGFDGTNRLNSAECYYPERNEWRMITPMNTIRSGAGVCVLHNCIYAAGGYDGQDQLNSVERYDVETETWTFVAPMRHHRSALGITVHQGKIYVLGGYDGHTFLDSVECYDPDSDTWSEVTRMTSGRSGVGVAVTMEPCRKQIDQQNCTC

## CC(C)c1cc2c(c(O)c1O)C1(C(=O)NCCCCCNC(=O)CCCCC3SCC4NC(=O)NC43)CCCC(C)(C)C1CC2 (stereo not shown) [CAB]
[1]; CAB 3 μM
  site of accumulation at low concentration: non-neuronal cells were strongly positive
[1]; CAB 10 μM
  site of accumulation at higher concentration: neurons were also labeled
[2]
  adduct formation with BSA: a single band (68 kDa) corresponding to the complex of BSA and CAB was detected
[3]
  level required to protect PC12h cells, relative to CA: a greater level of CAB than CA was required
[4]
  binding to Keap1-WT (73-kDa protein): observed in cells treated with CAB
[5]
  binding to IVR Keap1: very little binding
  binding to ΔBTB Keap1: no binding at all
  binding to ΔDGR Keap1: strong binding
[6]; 20 μM CAB versus 10 μM CA
  ARE activation relative to CA: to a much lesser extent
[6]; PC12h cells, CAB
  activation of the ARE: significantly activated the ARE

## CCN1C(=O)C=CC1=O [NEM, N-ethylmaleimide, reference compound]
[7]
  outcome for neurons in cortical cultures: neuronal death after 24 h

## C[S+]([O-])CCCCN=C=S (stereo not shown) [sulforaphane, reference compound]
[3]
  protection of PC12h cells against oxidative glutamate toxicity: did not protect

## C=CC1=C(C)c2cc3[n-]c(cc4nc(cc5[n-]c(cc1n2)c(C)c5C=C)C(C)=C4CCC(=O)O)c(CCC(=O)O)c3C.[Zn+2] [ZnPP, zinc protoporphyrin, reference compound]
[8]
  effect of HO-1 antagonist on neuroprotection by NEPP11: abrogated the neuroprotective effect of NEPP11
